Results: EP0819136B1, “MDP DERIVATIVES AND CONJUGATES HAVING HAEMATOPOIETIC FUNCTION STIMULATING ACTIVITY, AND COMPOSITIONS CONTAINING SAME” (VACSYN S.A., priority 1995, dated 1996)

Tests used:
[1] = system: globules rouges et les plaquettes; test: Red blood cell and platelet counts after 7 days of oral AZT, Muradimétide or both (Example 3, figures 9 and 10); assay type: in vivo, souris femelles BALB/c; conditions: p.o. once daily for 7 days: 100 mg/kg AZT, 50 mg/kg muradimétide, or both simultaneously; counts up to day 10
Source text: La figure 9 représente l'effet du traitement per os de souris BALB/c pendant 7 jours consécutifs avec de l'AZT, du Muradimétide (MDM) ou un mélange de ceux-ci sur la numération plaquettaire.
La figure 10 représente l'effet du traitement per os de souris BALB/c pendant 7 jours consécutifs avec de l'AZT, du Muradimétide (MDM) ou un mélange de ceux-ci sur le nombre des globules rouges.
L'effet d'un traitement de 7 jours sur le nombre de globules rouges et de plaquettes est indiqué dans les figures 9 et 10 respectivement. Les numérations sont représentées en pourcentage de celles obtenues au jour 0. Des souris femelles BALB/c (5 par groupe) sont traitées une fois par jour pendant 7 jours consécutifs par 100 mg/kg d'AZT (Δ), 50 mg/kg de muradimétide (D) ou simultanément par 100 mg/kg d'AZT et 50 mg/kg de muradimétide (O). Les comptages de plaquettes ou de globules rouges ont été réalisés au jour 0 et jusqu'à 10 jours suivant le début du traitement. […] La tendance à l'augmentation de leur nombre apparaît entre les jours 4 et 5. En revanche, l'anémie qui pourrait être observée dans les groupes traités pourrait être due aux saignements répétés; néanmoins la vitesse et l'importance de l'anémie est grandement réduite chez les animaux traités avec le mélange des deux produits en comparaison avec celui observé dans le groupe traité par l'AZT seul. […]

myélocytes circulants = test: Circulating myelocytes during two weeks of oral treatment, 4 days per week (Example 4, figure 11); assay type: in vivo, souris; conditions: p.o. days 0, 1, 2, 3 and 7, 8, 9, 10; MDM 25 mg/kg, AZT 50 mg/kg or both
Description: La figure 11 représente l'effet d'un traitement per os de souris pendant deux semaines consécutives (4 jours par semaine) avec l'AZT, le Muradimétide ou le mélange des deux sur le nombre des myélocytes circulants.
La figure 11 montre l'effet d'un traitement par le MDM à 25 mg/kg (X), de l'AZT à 50 mg/kg (O) et du mélange des deux (□) sur le comptage des myélocytes de souris traitées pendant 2 semaines aux jours 0, 1, 2, 3 de la première semaine et 7, 8, 9, 10 de la deuxième semaine. […] Si l'effet est surtout marqué au niveau de la première semaine, cela montre que le traitement nécessite un certain espace de temps entre les différents cycles de traitement et que des traitements répétés pourraient, le cas échéant, être utiles.

myélocytes = test: Comparison of oral Muradimétide and MDPA on myelocyte count after i.v. AZT (Example 10, figure 8); assay type: in vivo, souris swiss femelles; conditions: AZT 40 mg/kg i.v. days 0-3; MDPA 25 mg/kg p.o. 4 h before AZT
Source text: La figure 8 représente l'effet d'un traitement per os des souris avec du Muradimétide sur le changement de la numération myélocyte dans le sang circulant induite suite à une administration intra-veineuse d'AZT, deux dérivés de MDP étant comparés : le MDPA (Nac-Mur-L-ALa-D-Glu) et le Muradimétide.
Le dérivé utilisé pour mettre en évidence l'effet particulier du Muradimétide est le MDPA. La figure 8 indique l'effet sur des souris d'un traitement per os sur les changements de la numération de myélocyte induite suite à une administration intraveineuse d'AZT. Dans cette expérience, les souris swiss femelles ont été traitées de façon intraveineuse avec 40 mg par kg d'AZT aux jours 0, 1, 2 et 3. Des groupes de 5 souris ont reçu aux mêmes quatre jours et 4 heures avant l'AZT soit de l'eau physiologique, soit du MDPA à la dose de 25 mg par kg ou du Muradimétide par voie orale à la dose de 25 mg par kg. Les comptages de myélocytes ont été réalisés aux jours 0, 2, 3, 4 et 8. Les étoiles au-dessus des histogrammes ont la même signification que dans les diagrammes précédents.

Row | SMILES | toxicité sur les plaquettes [1] | effet sur la mobilisation des CHS (comptage des myélocytes) (myélocytes circulants) | effet antimyélotoxique et mobilisation des CSH dans la circulation sanguine (myélocytes)
1 | Cc1cn([C@H]2C[C@H](N=[N+]=[N-])[C@@H](CO)O2)c(=O)[nH]c1=O [AZT, 3'-Azido-3'-desoxy-thymidine, reference compound] | Aucune toxicité | strictement aucun effet | –
2 | CC(=O)N[C@H]1C(O)O[C@H](CO)[C@@H](O)[C@@H]1O[C@H](C)C(=O)N[C@@H](C)C(=O)N[C@H](CCC(=O)O)C(=O)O (stereo partly drawn) [MDPA, Nac-Mur-L-ALa-D-Glu] | – | – | n'étant pas retrouvé
